The values that follow come from US20240383856A1 (Zedira GmbH, priority 2021, published 2024).

Series [1] can be described thus: logD by shake flask method (octanol / PBS pH 7.4, HPLC). Conditions: octanol / PBS pH 7.4, shake flask. It is filed as physicochemical. In a few lines: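 LogD obtained by HPLC measurement of how the compound distributes between PBS (pH 7.4) and octanol in a shake-flask experiment.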
Series [2] can be described thus: Single-dose oral pharmacokinetic profile in mice. It is filed as in vivo. The conditions noted are these: male C57BL/6 mice, single oral dose 200 mg/kg. The procedure:
Presumed from promising Papp values (permeability coefficients, see below), the 5 inventors had proven the oral bioavailability of the inhibitors of the present application by the representative compounds II-3, II-15, and II-28. For this selected set of representative compounds, pharmacokinetic profiles were determined in male C57BL/6 mice (N=3, each). Briefly, the compounds were administered as single-dose soluble, oral formulation [20 mg/ml in PBS/(2—Hydroxypropyl)-β-cyclodextrin formulation] at 200 mg/kg. Plasma samples were taken at (0, 0.25, 0.5, 1, 2, 4, and 6 hours) and analyzed by LC-MS to determine the concentration of the representative compounds.

Where two headings read alike, the source gives them in different places.

In turn, `CNC(=O)C(=O)CC[C@H](NC(=O)c1oc2ccccc2c1C)C(=O)Nc1cccn(CC(=O)NC2C3CC4CC(C3)CC2C4)c1=O` (stereo partly drawn) [II-3, (S)-N1-(1-(2-(2-adamantylamino)-2-oxoethyl)-2-oxo-1,2-dihydropyridin-3-yl)-N6-methyl-2-(3-methylbenzofuran-2-carboxamido)-5-oxohexanediamide] showed a logD in series [1] of 1 to 3. The “Kel” value in series [2] came to 1.0 h⁻¹. In series [2] (mouse, plasma), this molecule gave a CL/F of 277 mL/min/kg, an MRT of 1 h, a half-life of 42 min and an AUC(0-t) of 12000 ng·h/mL. For the same molecule, the Cmax in series [2] (mouse, plasma, read-out: Cmax) is 21.6 µM. Further, the Cmax in series [2] (mouse, plasma, read-out: Cmax [ng/ml]) turned out to be 13600 ng/mL.
